Article PMC4117768, “Conjugation with polyamines enhances the antibacterial and anticancer activity of chloramphenicol” (Nucleic Acids Research, 2014)
Marks after values point to notes of the source that are not given here.

Tested on: central loop of Domain V of 23S rRNA, E. coli ribosomes
Test: Time-resolved footprinting of PA–CAM conjugates bound to ribosomes (DMS, kethoxal, CMCT probing, primer extension)
Type: binding
Settings: conjugate at 50 × Ki, 25°C, ratio to control lane R
Description: Complexes RI and R*I were then probed at 37°C for 10 min with DMS, kethoxal or CMCT, as described previously ([30]). The modified sites in 23S rRNA were then analyzed by primer extension with reverse transcriptase, according to Moazed et al. ([30]). […] Extension products were run on 6% polyacrylamide/7M urea gels. Identification of the modified nucleotides, quantitative scanning of the gels and normalization of the band intensities were made as previously described ([4]). The values indicated in Table 2 denote the ratio between the normalized intensity of a band of interest and the normalized intensity of the corresponding band in the control lane (ribosomes non-treated with drugs).

NCCCN(CCCCN(Cc1ccccc1)Cc1ccccc1)C(=O)CCC(=O)N[C@H](CO)[C@H](O)c1ccc([N+](=O)[O-])cc1 [Compound 4]
Relative reactivity of nucleoside A2058 (R*I binding state (3 min)): 1.25 ± 0.09^b,c
Relative reactivity of nucleoside A2059 (R*I binding state (3 min)): 0.60 ± 0.03^b,c
Relative reactivity of nucleoside A2062 (R*I binding state (3 min)): 0.52 ± 0.02^b,c
Relative reactivity of nucleoside A2451 (R*I binding state (3 min)): 0.53 ± 0.05^b
Relative reactivity of nucleoside A2602 (R*I binding state (3 min)): 0.88 ± 0.08
Relative reactivity of nucleoside G2505 (R*I binding state (3 min)): 0.35 ± 0.02^b,c
Relative reactivity of nucleoside U2506 (R*I binding state (3 min)): 0.65 ± 0.04^b
Relative reactivity of nucleoside U2585 (R*I binding state (3 min)): 0.45 ± 0.02^b,c
Relative reactivity of nucleoside U2609 (R*I binding state (3 min)): 1.00 ± 0.07
Relative reactivity of nucleoside A2058 (RI binding state (2 s)): 1.00 ± 0.05
Relative reactivity of nucleoside A2059 (RI binding state (2 s)): 1.00 ± 0.06
Relative reactivity of nucleoside A2062 (RI binding state (2 s)): 1.00 ± 0.05
Relative reactivity of nucleoside A2451 (RI binding state (2 s)): 0.48 ± 0.02^b
Relative reactivity of nucleoside A2602 (RI binding state (2 s)): 1.00 ± 0.10
Relative reactivity of nucleoside G2505 (RI binding state (2 s)): 0.65 ± 0.05^b
Relative reactivity of nucleoside U2506 (RI binding state (2 s)): 0.70 ± 0.05^b
Relative reactivity of nucleoside U2609 (RI binding state (2 s)): 1.00 ± 0.09
